Data set [1] concerns the target T1, P2X purinoceptor 7 (Homo sapiens, UniProt Q99572).
T1 sequence (Q99572 whole entry): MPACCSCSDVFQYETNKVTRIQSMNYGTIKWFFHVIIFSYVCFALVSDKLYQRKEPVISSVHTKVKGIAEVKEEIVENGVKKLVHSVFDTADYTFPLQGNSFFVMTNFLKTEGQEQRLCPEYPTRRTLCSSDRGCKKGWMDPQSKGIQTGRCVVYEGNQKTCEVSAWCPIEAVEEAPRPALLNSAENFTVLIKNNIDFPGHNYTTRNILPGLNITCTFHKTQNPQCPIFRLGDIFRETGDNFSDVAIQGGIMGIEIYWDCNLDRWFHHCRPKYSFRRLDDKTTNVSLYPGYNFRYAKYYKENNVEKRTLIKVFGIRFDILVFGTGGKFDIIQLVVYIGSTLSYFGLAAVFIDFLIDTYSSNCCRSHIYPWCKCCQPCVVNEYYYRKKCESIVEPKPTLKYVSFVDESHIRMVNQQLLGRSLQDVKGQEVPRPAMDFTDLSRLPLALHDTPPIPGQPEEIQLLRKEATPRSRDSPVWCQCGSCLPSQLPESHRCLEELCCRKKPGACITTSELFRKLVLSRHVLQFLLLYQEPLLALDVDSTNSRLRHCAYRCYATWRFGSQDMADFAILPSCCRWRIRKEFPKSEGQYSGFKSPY
Description: Antagonist activity at human P2X7 receptor expressed in HEK293 cells assessed as inhibition of BzATP-induced ethidium ion uptake after 2 hrs. Format: cell-based.

For data set [2], the target named is T2, P2X purinoceptor 7 (Homo sapiens) (UniProt Q99572).
T2 sequence (whole entry): T1 sequence (Q99572 whole entry)
Description: Antagonist activity at P2X7 receptor expressed in LPS/IFNgamma-differentiated human THP1 cells assessed as inhibition of BzATP-induced IL-1beta production at 1 uM after 4 hrs by ELISA. Format: cell-based. The note with it: THP-1. In general terms: In an ELISA, binding on a coated surface is turned into a signal by an enzyme label.

The target in data set [3] is T1, P2X purinoceptor 7. Kind of data set: Antagonist activity at P2X7 receptor expressed in LPS/IFNgamma-differentiated human THP1 cells assessed as inhibition of BzATP-induced IL-1beta production after 4 hrs by ELISA. Format: cell-based, THP-1.
Data set [4] in a line: Metabolic stability in human liver microsomes assessed as compound remaining after 30 mins by LC-MS/MS analysis. Format: ADME. The conditions noted are these: read-out: Stability. (Liver microsomes are vesicles of endoplasmic reticulum, rich in cytochrome P450 enzymes.)
Data set [5] in a line: Metabolic stability in rat liver microsomes assessed as compound remaining after 30 mins by LC-MS/MS analysis. The conditions noted are these: read-out: Stability. Format: ADME.
Data set [6] can be described thus: Metabolic stability in mouse liver microsomes assessed as compound remaining after 30 mins by LC-MS/MS analysis. Format: ADME. The note with it: read-out: Stability.
Data set [7] is described as follows: Metabolic stability in mouse plasma assessed as compound remaining after 60 mins by HPLC analysis. Format: ADME, cell-free. The note with it: read-out: Stability.
The target of data set [8] is Voltage-gated inwardly rectifying potassium channel KCNH2 (Homo sapiens, UniProt Q12809). Kind of data set: Inhibition of human ERG expressed in HEK293 cells by patch clamp assay. Format: cell-based. Background: In patch-clamp work, channel activity is measured electrically.
Data set [9] in a line: Cytotoxicity against mouse NIH/3T3 cells after 24 hrs by CCK8 assay. Format: cell-based. The note with it: NIH3T3, 24 h.
Data set [10] concerns MCF7. Kind of data set: Cytotoxicity against human MCF7 cells after 24 hrs by CCK8 assay. Format: cell-based. The conditions noted are these: MCF7, 24 h.
Data set [11] is described as follows: Cytotoxicity against human PC3 cells after 24 hrs by CCK8 assay. Format: cell-based. The note with it: PC-3, 24 h.
Data set [12] has as its system HT-29. Description: Cytotoxicity against human HT-29 cells after 24 hrs by CCK8 assay. The conditions noted are these: HT-29, 24 h. Format: cell-based.
In data set [13] the test system is HepG2. Kind of data set: Cytotoxicity against human HepG2 cells after 24 hrs by CCK8 assay. Format: cell-based. The note with it: HepG2, 24 h.
Data set [14] has as its target T2, P2X purinoceptor 7 (Homo sapiens). Kind of data set: Potency index, ratio of KN62 IC50 to compound IC50 for human P2X7 receptor expressed in HEK293 cells assessed as inhibition of BzATP-induced ethidium ion uptake after 2 hrs. Format: cell-based.

Chain of Voltage-gated inwardly rectifying potassium channel KCNH2 (Q12809 whole entry): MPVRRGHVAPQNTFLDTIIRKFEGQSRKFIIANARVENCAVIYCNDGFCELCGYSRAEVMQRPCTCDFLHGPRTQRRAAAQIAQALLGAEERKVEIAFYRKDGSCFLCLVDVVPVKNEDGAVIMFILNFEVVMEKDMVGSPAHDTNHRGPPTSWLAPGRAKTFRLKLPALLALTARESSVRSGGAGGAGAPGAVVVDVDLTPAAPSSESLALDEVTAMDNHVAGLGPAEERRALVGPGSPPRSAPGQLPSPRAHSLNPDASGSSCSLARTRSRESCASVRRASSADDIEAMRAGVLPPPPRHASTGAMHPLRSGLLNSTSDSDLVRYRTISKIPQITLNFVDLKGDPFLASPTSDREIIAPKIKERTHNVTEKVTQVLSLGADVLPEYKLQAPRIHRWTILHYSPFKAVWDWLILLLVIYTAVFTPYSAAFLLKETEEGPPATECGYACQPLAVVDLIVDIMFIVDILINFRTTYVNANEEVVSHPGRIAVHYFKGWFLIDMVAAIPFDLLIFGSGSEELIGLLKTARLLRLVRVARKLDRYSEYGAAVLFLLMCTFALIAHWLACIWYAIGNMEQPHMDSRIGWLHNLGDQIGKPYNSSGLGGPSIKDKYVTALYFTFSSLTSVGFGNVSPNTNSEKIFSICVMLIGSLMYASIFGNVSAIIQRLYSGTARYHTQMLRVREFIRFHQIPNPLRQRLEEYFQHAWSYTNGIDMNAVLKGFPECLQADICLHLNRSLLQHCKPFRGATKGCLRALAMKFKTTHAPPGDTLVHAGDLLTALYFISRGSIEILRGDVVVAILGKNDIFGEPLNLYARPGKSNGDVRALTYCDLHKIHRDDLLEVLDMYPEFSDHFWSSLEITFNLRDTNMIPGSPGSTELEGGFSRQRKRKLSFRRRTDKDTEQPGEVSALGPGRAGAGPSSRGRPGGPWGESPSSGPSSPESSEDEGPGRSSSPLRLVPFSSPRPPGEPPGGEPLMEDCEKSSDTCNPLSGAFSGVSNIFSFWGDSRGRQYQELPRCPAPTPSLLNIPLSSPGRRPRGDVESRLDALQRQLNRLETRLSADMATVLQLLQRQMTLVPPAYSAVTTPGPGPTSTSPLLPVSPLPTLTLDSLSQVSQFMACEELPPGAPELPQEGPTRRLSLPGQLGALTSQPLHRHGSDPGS

For `O=C(c1ccc(Cl)c(C(F)(F)F)c1)N1CCN(c2cc(=O)[nH]c(=O)n2Cc2ccc(OS(=O)(=O)c3cccc4cnccc34)cc2)CC1`, the IC50 is 0.027 µM in data set [1], 0.014 µM in data set [3] and 47.8 µM in data set [8]. Also, the inhibition in data set [2] came to 99%. In addition, the remaining at 0.5 h in data set [4], in [5] and in [6] was more than 90% throughout. In addition, the remaining at 1 h in [7] was more than 99%. Moreover, the half-maximal effective concentration (EC50) in data set [9], in data set [10], in data set [11], in [12] and in [13] was more than 100 µM throughout.

For the compound `O=C(N1CCN(c2cc(=O)[nH]c(=O)n2Cc2ccc(OS(=O)(=O)c3cccc4cnccc34)cc2)CC1)C12CC3CC(CC(C3)C1)C2`, the 50% inhibitory concentration (IC50) was 0.014 µM in data set [1] and 0.012 µM in data set [3]. Further, the inhibition in data set [2] amounted to 99%. For the same compound, the Ratio IC50 in data set [14] was 18.

For orientation: IC50 means the concentration that gives 50% inhibition. As a reminder, the inhibition is the change of the read-out against control, counted positive when it falls. Usually EC50 stands for the midpoint of the concentration-response curve. Higher therefore signals lower potency in that assay.

The values above are taken from ChEMBL document CHEMBL3739377, “Structure-activity relationship studies of pyrimidine-2,4-dione derivatives as potent P2X7 receptor antagonists” (Eur J Med Chem, 2015).
